Measurements published in BindingDB's records for patent US20250197406 (1ST Biotherapeutics, 2025).

Target: Mitogen-activated protein kinase kinase kinase kinase 1 (Homo sapiens, UniProt Q92918)
Assay: HPK1 Kinase Assay
Protocol: HPK1 kinase activity was measured by Promega's ADP-Glo™ kinase assay. In this assay, 5 ng of recombinant human HPK1 (signalchem) is incubated with 5 μL of compounds (0.5% DMSO), 5 μL of MBP (0.5 μg/μl) and 5 μL of ATP (25 μM) in buffer (40 mM Tris, 7.5; 20 mM MgCl2; 0.1 mg/ml BSA; 50 μM DTT.). The assay was started by incubating the reaction mixture in a 96-well plate at 30° C. for 40 minutes. After the incubation, 25 μL ADP-Glo reagent was added and the reaction was incubated at room temperature for 40-min to stop the reaction and degrade residual ATP. The ADP product was then converted to ATP by adding 50 μL per well of detection reagent. Luminescence was detected after 30-min room temperature incubation with the Molecular device I3X plate reader. The IC50 values were calculated from a series of percent inhibition values determined at a range of inhibitor concentration using software routines as implemented in the GraphPad Prism 7 software and SigmaPlot13.0.

Chain of Mitogen-activated protein kinase kinase kinase kinase 1 (Q92918 whole entry): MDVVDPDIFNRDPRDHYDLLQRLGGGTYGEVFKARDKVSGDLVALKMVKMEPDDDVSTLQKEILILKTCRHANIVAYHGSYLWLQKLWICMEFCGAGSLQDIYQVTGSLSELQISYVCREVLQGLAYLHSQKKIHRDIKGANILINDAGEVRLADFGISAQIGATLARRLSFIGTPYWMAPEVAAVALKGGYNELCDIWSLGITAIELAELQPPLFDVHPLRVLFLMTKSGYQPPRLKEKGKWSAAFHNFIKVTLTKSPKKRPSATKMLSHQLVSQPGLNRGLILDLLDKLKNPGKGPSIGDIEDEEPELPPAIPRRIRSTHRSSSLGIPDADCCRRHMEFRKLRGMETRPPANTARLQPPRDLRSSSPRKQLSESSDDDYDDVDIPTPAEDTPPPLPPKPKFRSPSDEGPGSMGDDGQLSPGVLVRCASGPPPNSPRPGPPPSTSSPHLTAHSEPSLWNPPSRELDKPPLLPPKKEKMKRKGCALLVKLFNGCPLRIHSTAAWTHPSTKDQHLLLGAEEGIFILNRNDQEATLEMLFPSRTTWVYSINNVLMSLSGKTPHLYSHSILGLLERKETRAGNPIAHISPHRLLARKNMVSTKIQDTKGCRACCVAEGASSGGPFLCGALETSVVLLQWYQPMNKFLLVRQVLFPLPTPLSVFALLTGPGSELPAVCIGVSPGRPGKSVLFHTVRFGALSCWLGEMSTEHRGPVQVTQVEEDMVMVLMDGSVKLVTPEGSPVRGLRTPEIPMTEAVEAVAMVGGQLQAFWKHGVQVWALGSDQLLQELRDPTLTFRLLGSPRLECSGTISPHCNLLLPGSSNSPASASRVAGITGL

IC50	Structure (SMILES)
< 0.1 µM	CC(C)Nc1c(F)c(Cl)c(-c2cn3cc(NC(=O)C4(F)CC4)nc3cn2)c2cn[nH]c12 [US20250197406, Example 52]
< 0.1 µM	CC(=O)Nc1cn2cc(-c3c(Cl)c(F)c(NC(C)C)c4[nH]ncc34)ncc2n1 [US20250197406, Example 43]
